# Source: PMC10850501 (Nature Communications, 2024)
# Peptide text beside a SMILES is read from it.
# What was measured:
# [1] = Acute IV pharmacokinetics; format: in vivo, rat (female Wistar); details: ESBP3 200μL (10 mg/mL) IV bolus, Wistar rats (n=8)
# Procedure: (§1) Female Wistar rats (225–250 g, 8–12 weeks old) were observed and acclimatized for 2 weeks prior to running the studies. They were housed in a controlled environment with temperature at […] and 40–70% humidity. They were kept in an alternating 12-hour light/dark cycle, and food, and water was provided as pellets ad libitum. Female Wistar Rats were used for the pharmacokinetics and the drug clearance analysis from the blood. The two hydrogels (ESBP2 and ESBP3) at 10 mg/ml concentration were injected into the rats via the lateral tail vein. For subcutaneous implants, the substance was injected between the shoulder blades and above the lumbar vertebrae, 200 μL each, using a 25-gauge needle. The hydrogel bolus was prepared with 0.9% saline and was injected within 1–2 minutes. The volume injected was approximately 1% of the total body weight of the rat, which was calculated prior to the dosing. The initial blood draw was performed for baseline, and the subsequent blood collection was performed from the lateral vein using 25 g butterfly needles.
# Rat blood samples were collected at 0, 5, 15, 30 minutes, and 1, 2, 4, 8, and 24 hours post-injection timepoints for Acute PK and were aliquoted out into heparinized tubes to prevent coagulation and stored on top of ice packs. Blood collected in K2EDTA anticoagulant tubes was processed to plasma frozen via centrifugation at 13000 RCF for 10 minutes at 4 °C and stored at −80 °C till analysis using HPLC. The body weight was recorded every day prior to the blood collection.
# [2] = Daily repeat IV dosing, 10 days (chronic PK/safety); format: in vivo, rat (female Wistar)
# Procedure: as §1
# Female Wistar rats (225–250 g, 8–12 weeks old) were weighed and repeatedly dosed (1% by weight) IV with ESBP2 or ESBP3 daily at 10 mg/mL (~3 mM). Rat blood samples were collected daily prior to injection via tail vein. Post 10 days of treatment, animals were allowed to recover for 10 days and then sacrificed. Plasma was stored and analyzed as above. The body weight was recorded every day prior to the blood collection.
# SARS-CoV-2 Spike-RBD = SARS-CoV-2 Spike-RBD (Severe acute respiratory syndrome coronavirus 2, UniProt P0DTC2); format: binding
# [3] = test system: SARS-CoV-2 live virus (B.1 lineage), Vero E6 cells; format: cell-based
smiles,measurement,setting,value
CC[C@H](C)[C@H](NC(=O)[C@H](Cc1ccc(O)cc1)NC(=O)[C@@H](NC(=O)[C@H](CCCCN)NC(=O)[C@H](Cc1ccc(O)cc1)NC(=O)[C@H](CCC(N)=O)NC(=O)CNC(=O)[C@H](CCC(=O)O)NC(=O)[C@H](CC(C)C)NC(=O)[C@H](CO)NC(=O)[C@H](CC(C)C)NC(=O)[C@H](CO)NC(=O)[C@H](CC(C)C)NC(=O)[C@H](CO)NC(=O)[C@H](CC(C)C)NC(=O)[C@H](CO)NC(=O)[C@H](CC(C)C)NC(=O)[C@H](CO)NC(=O)[C@H](CC(C)C)NC(=O)[C@H](CO)NC(=O)[C@H](CCC(=O)O)NC(C)=O)[C@@H](C)O)C(=O)N[C@@H](CC(=O)O)C(=O)N[C@@H](CCCCN)C(=O)N[C@@H](CC(N)=O)C(=O)N[C@@H](CC(N)=O)C(=O)N[C@@H](Cc1c[nH]cn1)C(=O)N[C@@H](Cc1ccc(O)cc1)C(=O)N[C@@H](C)C(=O)N[C@@H](CCC(=O)O)C(=O)N[C@@H](CC(=O)O)C(=O)N[C@@H](CCC(=O)O)C(=O)N[C@@H](CCCNC(=N)N)C(=O)N[C@@H](Cc1ccc(O)cc1)C(=O)N[C@@H](CCCCN)C(N)=O [ESBP3] (Ac-ESLSLSLSLSLSLEGQYKTYIDKNNHYAEDERYK-NH2),eliminated by,[1],≤ 8 h
same,Cmax,"[1]; female, rat, plasma, 2 mg, at 5 min, read-out: observed maximum concentration",~550 µg/mL
same,AUC,"[1]; female, rat, plasma, 2 mg, read-out: AUC",395 µg·h/mL
same,"repeat IV dosing safety, in words","[2]; daily IV for 10 days, ~1 w% (10 mg/mL), 225-250 g adult rats",no adverse effect
same,"significant changes in body weight (ESBP3 also animal behavior, adverse events, gross organ morphology) compared to carrier","[2]; daily repeated IV dosing for 10 days, rats",no
same,"ITC binding to Spike RBD, in words",SARS-CoV-2 Spike-RBD,ESBP3-Spike-binding events
same,"ITC self-assembly, in words",SARS-CoV-2 Spike-RBD,supported spontaneous self-assembly
same,"Comparative, Average",[3],66.6154
same,"inhibition of live virus, in words",[3],dose-dependent inhibition of live virus
same,"live virus plaque inhibition, in words",[3],no major differences
